Results taken from patent US20240415819A1, “MACROCYCLIC COMPOUNDS AS PROTEASOME SUBUNIT BETA TYPE-5 INHIBITORS” (Lead Discovery Center GmbH, priority 2021, published 2024).

Experiments:
[1] = molecular target: T1, β5 subunit of the human constitutive proteasome (CPS) (Homo sapiens, UniProt P28074); assay: β5 inhibition assay, human constitutive proteasome (Suc-LLVY-AMC); assay type: biochemical; conditions: IC50 class, Suc-LLVY-AMC substrate
T1 construct: purchased Boston Biochem E-360
Method: The enzymatic activity of the β5 subunit of the human constitutive proteasome (CPS) is analyzed. In another assay, which differs from the assay of the human constitutive proteasome only in using the human immunoproteasome (IPS) the enzymatic activity of the β5 subunit of the human immunoproteasome (IPS) is analyzed. […] Inhibition is indicated as IC50 [nM] (“-”=not measured).

[2] = molecular target: T2, β5 subunit of the human immunoproteasome (IPS) (Homo sapiens, UniProt P28062); assay: β5 inhibition assay, human immunoproteasome (Suc-LLVY-AMC); assay type: biochemical; conditions: IC50 class, Suc-LLVY-AMC substrate
T2 construct: purchased Boston Biochem E-370
How it was run: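 Human immunoproteasome (1 nM final) was preincubated 10 min at RT with compound in 100 mM HEPES pH 7.5, 50 mM NaCl, 0.02% SDS, 1 mM DTT. Suc-LLVY-AMC (22.6 μM final) was then added for 4 h at RT in the dark. After stopping with 1 μM bortezomib, AMC fluorescence was read (ex 355/em 460 nm).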

[3] = tested on: A549 (human lung carcinoma cell line); assay: Glo assay of A549 cells (Table 3; ProteasomeGlo plating scheme); assay type: cell-based; conditions: Homo sapiens; A549 cells; read-out: PGLo A549
Description: Inhibition is indicated as IC50 [nM] (“-”=not measured). […] • Chymotrypsin-Like Cell-Based Proteasome-GloTM Assay (Promega; […]) • Cell culture 384-well plates (Greiner BioOne; 781080) • Dispensing cassette, MultiDrop Standard tube dispensing cassette (Thermo Scientific; 24072670) • DPBS (Pan BioTech; P04-36500) • Cell culture 384-well plates (Greiner BioOne; 781080) • CPD source plate: diamond-shape plate (Labcyte; LP-0200) • Intermediate plate (Labcyte; P-05525) [table] • a. Remove the plates with cells from the incubator. • b. Take all the plates including the compound plate, intermediate plate and Staurosporine plate to the ECHO. • c. Click on “Open” in the ECHO software and select the protocol “QLI5_25ul_30 uM-Grenier”. • d. Follow the on-screen prompts and instructions once you click “Start” to insert the compound plate, intermediate plate and destination plates. • e. Change the final number of destination plates on the program. • f. Follow the on-screen prompts and instructions once you click “Start” to load the Staurosporine and destination plates. • g. Once all the compounds, DMSO and Staurosporine have been transferred, place the destination plates in a wet tissue box. • h. Place the destination plates back into the incubator and incubate at 37° C., 5% CO2 for 105 minutes. • i. Re-seal all the compound+Stauro diamond and intermediate plates and store in the dark. Chymotrypsin like ProteasomeGlo Assay • 1. Thaw the components of the ProteasomeGlo assay at room temperature including the ProteasomeGlo Buffer, the lyophilized Luciferin Detection Reagent and the Suc-LLVY-Glo Substrate. • 2. Reconstitute the Luciferin Detection Reagent in the amber coloured bottle by adding 50 ml of the ProteasomeGlo Buffer. • 3. Vortex the Suc-LLVY-Glo Substrate briefly to reconstitute the Substrate well. • 4. Spin down the Substrate and add 250 μl of the Substrate to the reconstituted Luciferin Detection Reagent from step 2. • 5. Briefly vortex the amber bottle with the mix to prepare a homogenous solution. • 6. Place the mix prepared in step 5 to sit at room temperature for 60 minutes. • 7. After 60 minutes, pipette 25 μl of the mix from step 5 into all wells with the cells. • 8. Shake the plates for 2-5 minutes to ensure the complete mixing of the ProteasomeGlo reagent with the cells. • 9. Leave the plates in the dark for 10-15 minutes. • 10. Measure the luminescence read-out using the Viktor and the protocol “Luminescence_384Well_0.2 sec”. (Note: The Protoeasome-GloTM Reagent (combined Proteasome-GloTM Substrate, Proteasome-GloTM Buffer and Luciferin Detection Reagent) can be stored at 4° C. or -20° C. for 1 month with minimal loss of activity.)

[4] = tested on: Hs 746T (human gastric carcinoma cell line); assay: 48 hr CTG viability assay, Hs 746T; assay type: cell-based; conditions: Hs746T, 48 hr CTG, read-out: Hs 746T IC50
Method: (§1) A viability assay was conducted for 48 hours to evaluate the inhibition of cancer cell growth by proteasome inhibitors. Briefly, the candidate cell line was plated with a 96-well plate following density of cells, respectively. 6×10^3 Cells/well for A2780 (human ovarian cancer cell line) and MDA-MB-468 (breast carcinoma), 8×10^3 Cells/well for Hs746T (human gastric carcinoma cell line), 1.1×10^4 Cells/well for MM1 S and RPMI 8226 (multiple myeloma). After 24 hours, the cells were treated with various concentrations of the compound (ranging from 0.0015 uM to 10 uM). […] After 48 hours of incubation at 37° C., 5% CO2 incubator, cells were analyzed for viability using the CellTiter-Glo Luminescent Cell Viability assay (Promega, Cat #G7570). All viability assays were performed in duplicate and Luminescence was read using an Envision (Perkin Elmer, USA). Data were analyzed using XLfit software. […] (human gastric carcinoma cell line), MM1 S (B lymphoblast cell line), and RPMI 8226 (B lymphocyte cell line, multiple myeloma). Inhibition is indicated as IC50 [nM] (“-”=not measured).

[5] = tested on: MM1 S (B lymphoblast cell line); assay: 48 hr CTG viability assay, MM1S; assay type: cell-based; conditions: Homo sapiens, 48 hr CTG, read-out: MM1S IC50
Method: as §1

[6] = tested on: RPMI 8226 (B lymphocyte cell line, multiple myeloma); assay: 48 hr CTG viability assay, RPMI 8226; assay type: cell-based; conditions: Homo sapiens, RPMI-8226; 48 hr CTG; read-out: RPMI-8226 IC50
Method: as §1

IC50 [1] [µM]	IC50 [2] [µM]	IC50 [3] [µM]	IC50 [4] [µM]	IC50 [5] [µM]	IC50 [6] [µM]	SMILES
< 0.1	< 0.1	< 0.1	< 0.1	< 0.1	< 0.1	Cc1ccc2cc1CNC(=O)[C@H](CCc1ccccc1)NC(=O)[C@@H](NC(=O)CCN1CC3CCC1C3)CC(=O)N1CCCC(CCO2)C1 (stereo partly drawn) [Compound 673, 3-(2-azabicyclo[2.2.1]heptan-2-yl)-N-((9S,12S)-5^4-methyl-8,11,14-trioxo-9-phenethyl-4-oxa-7,10-diaza-1(3,1)-piperidina-5(1,3)-benzenacyclotetradecaphane-12-yl)propanamide]
< 0.1	< 0.1	< 0.1	< 0.1	< 0.1	< 0.1	Cc1ccc2cc1CNC(=O)[C@H](CCc1ccccc1)NC(=O)[C@@H](NC(=O)N1CC(C)(C)c3cc(N)ccc31)CC(=O)N1CCCC(CCO2)C1 (stereo partly drawn) [Compound 666, 5-amino-3,3-dimethyl-N-((9S,12S)-5^4-methyl-8,11,14-trioxo-9-phenethyl-4-oxa-7,10-diaza-1(3,1)-piperidina-5(1,3)-benzenacyclotetradecaphane-12-yl)indoline-1-carboxamide]
				< 0.1	< 0.1	Cc1ccc2cc1CNC(=O)[C@H](CCc1ccccc1)NC(=O)[C@@H](NC(=O)C(C)(C)CO)CC(=O)N1CCC[C@H](CCO2)C1 [Compound 573]
< 0.1	< 0.1	< 0.1		< 0.1	< 0.1	Cc1ccc2cc1CNC(=O)[C@H](CCc1ccccc1)NC(=O)[C@@H](NC(=O)C(C)(C)CF)CC(=O)N1CCCC(CCO2)C1 (stereo partly drawn) [Compound 650, 3-fluoro-2,2-dimethyl-N-((9S,12S)-5^4-methyl-8,11,14-trioxo-9-phenethyl-4-oxa-7,10-diaza-1(3,1)-piperidina-5(1,3)-benzenacyclotetradecaphane-12-yl)propanamide]
			< 0.1	< 0.1	< 0.1	Cc1ccc2cc1CNC(=O)[C@H](CCc1ccccc1)NC(=O)[C@@H](NC(=O)CCOC1CC3(C1)CN(C(=O)OC(C)(C)C)C3)CC(=O)N1CCCC(CCO2)C1 (some centres unmarked) [Compound 577]
			< 0.1	< 0.1	< 0.1	Cc1ccc2cc1CNC(=O)[C@H](CCc1ccccc1)NC(=O)[C@@H](NS(=O)(=O)C1CCCCC1)CC(=O)N1CCCC(CCO2)C1 (some centres unmarked) [Compound 579]
< 0.1	< 0.1	< 0.1		< 0.1	< 0.1	Cc1ccc2cc1CNC(=O)[C@H](CCc1ccccc1)NC(=O)[C@@H](NC(=O)C(C)(C)CO)CC(=O)N1CCC[C@@H](CCO2)C1 [Compound 644, 3-hydroxy-2,2-dimethyl-N-((13S,9S,12S)-5^4-methyl-8,11,14-trioxo-9-phenethyl-4-oxa-7,10-diaza-1(3,1)-piperidina-5(1,3)-benzenacyclotetradecaphane-12-yl)propanamide]
			< 0.1	< 0.1	< 0.1	Cc1ccc2cc1CNC(=O)[C@H](CCc1ccccc1)NC(=O)[C@@H](NC(=O)Cc1ccc(NC(=O)[C@@H](N)CC(=O)O)cc1C)CC(=O)N1CCCC(CCO2)C1 (some centres unmarked) [Compound 578]
< 0.1	< 0.1			< 0.1	< 0.1	Cc1ccc2cc1CNC(=O)[C@H](CCc1cccnc1)NC(=O)[C@@H](NC(=O)Cc1ccccc1F)CC(=O)N1CCCC(CCO2)C1 (stereo partly drawn) [Compound 600, 2-(2-fluorophenyl)-N-((9S,12S)-5^4-methyl-8,11,14-trioxo-9-(2-(pyridin-3-yl)ethyl)-4-oxa-7,10-diaza-1(3,1)-piperidina-5(1,3)-benzenacyclotetradecaphane-12-yl)acetamide]
< 0.1	< 0.1	< 0.1		< 0.1	< 0.1	Cc1ccc2cc1CNC(=O)[C@H](CCc1ccccc1)NC(=O)[C@@H](NC(=O)C1(CO)CCC1)CC(=O)N1CCCC(CCO2)C1 (stereo partly drawn) [Compound 670, 1-(hydroxymethyl)-N-((9S,12S)-5^4-methyl-8,11,14-trioxo-9-phenethyl-4-oxa-7,10-diaza-1(3,1)-piperidina-5(1,3)-benzenacyclotetradecaphane-12-yl)cyclobutane-1-carboxamide]
< 0.1	< 0.1	< 0.1		< 0.1	< 0.1	Cc1ccc2cc1CNC(=O)[C@H](CCc1ccccc1)NC(=O)[C@@H](NC(=O)C(C)(C)CN)CC(=O)N1CCCC(CCO2)C1 (stereo partly drawn) [Compound 682, 3-amino-2,2-dimethyl-N-((9S,12S)-5^4-methyl-8,11,14-trioxo-9-phenethyl-4-oxa-7,10-diaza-1(3,1)-piperidina-5(1,3)-benzenacyclotetradecaphane-12-yl)propanamide]
< 0.1	< 0.1	< 0.1		< 0.1	< 0.1	Cc1ccc2cc1CNC(=O)[C@H](CCc1ccccc1)NC(=O)[C@@H](NC(=O)C1(CO)CCCC1)CC(=O)N1CCCC(CCO2)C1 (stereo partly drawn) [Compound 689, 1-(hydroxymethyl)-N-((9S,12S)-5^4-methyl-8,11,14-trioxo-9-phenethyl-4-oxa-7,10-diaza-1(3,1)-piperidina-5(1,3)-benzenacyclotetradecaphane-12-yl)cyclopentane-1-carboxamide]
1 to 5	0.1 to 0.5	1 to 5		0.1 to 0.5	1 to 5	Cc1ccc2cc1CNC(=O)[C@H](CCc1ccccc1)NC(=O)[C@@H](N1CC(C)(C)NC1=O)CC(=O)N1CCCC(CCO2)C1 (stereo partly drawn) [Compound 733, (9S,12S)-12-(4,4-dimethyl-2-oxoimidazolidin-1-yl)-5^4-methyl-9-phenethyl-4-oxa-7,10-diaza-1(3,1)-piperidina-5(1,3)-benzenacyclotetradecaphane-8,11,14-trione]
< 0.1	< 0.1		< 0.1	< 0.1	< 0.1	Cc1ccc2cc1CNC(=O)[C@H](CCc1ccccc1)NC(=O)[C@@H](NC(=O)CCOCCCC1CCCC1)CC(=O)N1CCCC(CCO2)C1 (stereo partly drawn) [Compound 692, 3-(3-cyclopentylpropoxy)-N-((9S,12S)-5^4-methyl-8,11,14-trioxo-9-phenethyl-4-oxa-7,10-diaza-1(3,1)-piperidina-5(1,3)-benzenacyclotetradecaphane-12-yl)propanamide]
